Assay type in all cases: biochemical
One experiment addresses T1, mouse 11β-HSD1 (Mus musculus, UniProt P50172).
T1 construct: The obtained PCR products of about 0.9 kbp, 1.2 kbp, and 0.9 kbp were subcloned into an expression vector pcDNA3.1+/Zeo; expressed in transfected cells
Put plainly: Enzyme inhibitory activity, mouse 11β-HSD1 (lysate of stably expressing CHO-K1 cells, cortisol by competitive ELISA). The following applies: Table 2; mouse 11β-HSD1, cell lysate, 37° C. for 1 hour; read-out: m HSD1 in vitro assay (IC50 uM). In outline:
(§1)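 Sonicated lysates of stably transfected cells (diluted to 0.1–0.4 mg/mL before addition) reacted for 1 h at 37 °C in pH 7.4 Tris/sucrose/EGTA/EDTA/MgCl2 buffer with 100 nmol/L cortisone or cortisol and 400 μmol/L NADPH or NAD+, then were heat-stopped at 95 °C. Inhibition rate = 100 minus residual activity.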
In general terms: ELISA stands for enzyme-linked immunosorbent assay.

For the next experiment, the target named is T2, human 11β-HSD1 (Homo sapiens, UniProt P28845).
T2 construct: The obtained PCR products of about 0.9 kbp, 1.2 kbp, and 0.9 kbp were subcloned into an expression vector pcDNA3.1+/Zeo; expressed in transfected cells
Nature of the experiment: Enzyme inhibitory activity, human 11β-HSD1 (lysate of stably expressing HEK293 cells, cortisol by competitive ELISA). As to conditions: Table 1; human 11β-HSD1, cell lysate, 37° C. for 1 hour; read-out: h HSD1 in vitro assay (IC50 uM). In short, it runs like this: as §1

In the next experiment the target is T3, human 11β-HSD2 (Homo sapiens, UniProt P80365).
T3 construct: The obtained PCR products of about 0.9 kbp, 1.2 kbp, and 0.9 kbp were subcloned into an expression vector pcDNA3.1+/Zeo; expressed in transfected cells
T3 sequence (P80365 1-405): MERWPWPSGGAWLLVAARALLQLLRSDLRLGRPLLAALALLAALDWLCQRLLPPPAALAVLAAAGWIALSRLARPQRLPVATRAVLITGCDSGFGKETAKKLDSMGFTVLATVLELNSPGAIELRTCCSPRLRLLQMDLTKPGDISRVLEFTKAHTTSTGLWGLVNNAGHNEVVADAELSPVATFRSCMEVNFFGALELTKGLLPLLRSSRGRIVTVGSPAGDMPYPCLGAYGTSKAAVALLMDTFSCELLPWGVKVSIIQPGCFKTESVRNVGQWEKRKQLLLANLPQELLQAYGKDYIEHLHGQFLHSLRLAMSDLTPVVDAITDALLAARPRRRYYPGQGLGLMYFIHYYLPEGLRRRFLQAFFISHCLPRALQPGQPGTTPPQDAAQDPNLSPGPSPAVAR
Put plainly: Enzyme inhibitory activity, human 11β-HSD2 (lysate of stably expressing HEK293 cells, cortisol by competitive ELISA). As to conditions: Table 1; human 11β-HSD2, cell lysate, 37° C. for 1 hour; read-out: h HSD2 in vitro assay (IC50 uM). The protocol:
1. Human 11β-HSD1-, Human 11β-HSD2- and Mouse 11β-HSD1-Gene Clonings and Establishment of Stably Expressing Cells
Human 11β-HSD1-, human 11β-HSD2-, and mouse 11β-HSD1-gene clonings were conducted using as a template a reverse transcription product of human-liver RNA, human-kidney RNA (CELL APPLICATIONS), and mouse-kidney RNA respectively, by means of PCR cloning with reference to nucleotide sequences of Genbank Accession Nos. NM_005525, NM_000196, and NM_008288. The obtained PCR products of about 0.9 kbp, 1.2 kbp, and 0.9 kbp were subcloned into an expression vector pcDNA3.1+/Zeo (Invitrogen).
Human 11β-HSD1- and human 11β-HSD2-expressing vectors were transfected into human kidney-derived cell line, HEK293 cells, using a transfection reagent, jet PEI (Funakoshi). Mouse 11β-HSD1 was transfected to Chinese hamster ovary-derived cell line, CHO-K1 cells. Selection was conducted with 200-400 μg/mL of zeocine (Invitrogen) to provide stably expressing-cell clones. The stably expressing cells were suspended in buffer solution A (20 mmol/L Tris-HCl, pH 7.4, 250 mmol/L sucrose, 1 mmol/L EGTA, 1 mmol/L EDTA, 1 mmol/L MgCl2), sonicated, and then stored at −80° C.
2. Assay of Enzyme Inhibitory Activity
An enzymatic reaction was conducted using a polystyrene 96-well plate. Each well was added with 1 μL of a test agent dissolved in DMSO and then diluted (0.003 to 3 mmol/L), and further added with 10 μL of cell lysate diluted to a concentration of 0.1 mg/mL to 0.4 mg/mL. Next, 90 μL of buffer solution A containing substrate (100 nmol/L cortisone or cortisol) and coenzyme (400 μmol/L NADPH or NAD+) was added and the mixture was incubated at 37° C. for 1 hour. The enzymatic reaction was stopped by treating at 95° C. for 3 minutes. Cortisol that was present in the reaction solution was determined by a competitive ELISA shown below.
Anti-rabbit IgG antibody (Chemi-con) diluted to 2 μg/mL with carbonate buffer solution (pH 9.6) was added in 100 μL each to a 96-well immuno plate (Nunc) and immobilized by an incubation at 4° C. overnight. 50 μL of enzymatic reaction solution was put onto the plates, and further, anti-cortisol antibody (Cosmo Bio) and HRP-labeled cortisol (Cosmo Bio), diluted with buffer solution B (25 mmol/L Tris-HCl pH 7.4, 137 mmol/L NaCl, 2.68 mmol/L KCl), were added in 50 μL respectively and incubated at 4° C. overnight. After washed three times with buffer solution B containing 0.05% Tween 20, the plates were allowed to develop color by adding 100 μL of color reagent, TMB (Moss). The color reaction was stopped by 25 μL of 1 mol/L sulfuric acid and the absorbance was determined at 450 nm with a microplate reader (Molecular Device, VersaMax).
The values of human 11β-HSD1, human 11β-HSD2, and mouse 11β-HSD1 activities were subtracted from 100, and the resultant values were regarded as the respective 11β-HSD inhibition rates of example compounds. […] The comparison of human 11β-HSD1 and human 11β-HSD2 inhibiting activities is shown in Table 1, and the comparison of human 11β-HSD1 and mouse 11β-HSD1 inhibiting activities is shown in Table 2.

Results on 17 compounds are retold here after patent US8252781B2, “1,2-diazetidin-3-one derivatives and drugs containing same” (Kowa Company, Ltd., priority 2008, dated 2012).

Some results are limits rather than exact numbers.

The IC50 is the point on the concentration scale where inhibition reaches its midpoint.

T1 sequence (P50172 whole entry): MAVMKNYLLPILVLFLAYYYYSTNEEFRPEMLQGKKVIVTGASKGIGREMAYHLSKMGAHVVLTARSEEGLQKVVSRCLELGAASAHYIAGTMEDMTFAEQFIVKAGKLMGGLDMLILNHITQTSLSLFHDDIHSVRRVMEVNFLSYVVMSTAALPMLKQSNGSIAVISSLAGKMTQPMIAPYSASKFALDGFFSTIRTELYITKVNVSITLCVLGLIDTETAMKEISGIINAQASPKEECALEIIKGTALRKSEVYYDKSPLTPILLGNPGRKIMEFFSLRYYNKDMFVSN
T2 sequence (P28845 whole entry): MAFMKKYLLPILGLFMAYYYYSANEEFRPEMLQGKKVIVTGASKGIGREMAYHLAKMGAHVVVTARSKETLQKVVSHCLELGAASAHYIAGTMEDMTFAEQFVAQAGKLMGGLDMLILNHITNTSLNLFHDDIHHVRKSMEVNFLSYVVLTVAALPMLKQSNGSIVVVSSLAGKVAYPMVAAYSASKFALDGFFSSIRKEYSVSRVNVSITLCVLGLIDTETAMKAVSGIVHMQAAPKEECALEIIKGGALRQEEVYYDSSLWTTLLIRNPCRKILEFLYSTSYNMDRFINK

Regarding `Cc1ccc(C)c(C(=O)N2N(C3C4CC5CC(C4)CC3C5)C(=O)C2(C)C)c1` (stereo not drawn) [Example 161, 1-[(2,5-dimethylphenyl)carbonyl]-4,4-dimethyl-2-(adamantan-2-yl)-1,2-diazetidin-3-one], the half-inhibitory concentration (IC50) on mouse 11β-HSD1 was 0.23 µM; on human 11β-HSD1, 0.5 µM; at human 11β-HSD2 it was greater than 30 µM.
On the same counts, the results for `CCc1ccccc1CN1N(C2C3CC4CC(C3)CC2C4)C(=O)C1(C)C` (stereo not drawn) [Example 50, 1-(2-ethylbenzyl)-4,4-dimethyl-2-(adamantan-2-yl)-1,2-diazetidin-3-one] are 0.16 µM, 0.042 µM and 6.6 µM.
Regarding `CC1(C)C(=O)N(C2CCCCCCC2)N1Cc1ccc(F)cc1Cl` [Example 76, 1-(2-chloro-4-fluorobenzyl)-2-cyclooctyl-4,4-dimethyl-1,2-diazetidin-3-one], the concentration for half-maximal inhibition (IC50) was found to be 0.14 µM on mouse 11β-HSD1, 0.031 µM on human 11β-HSD1 and 4.8 µM at human 11β-HSD2.
Taken in the same sequence, the figures for `CC1(C)C(=O)N(C2C3CC4CC(C3)CC2C4)N1Cc1cc(F)ccc1Cl` (stereo not drawn) [Example 41, 1-(2-chloro-5-fluorobenzyl)-4,4-dimethyl-2-(adamantan-2-yl)-1,2-diazetidin-3-one] were 0.13 µM, 0.023 µM and 3.2 µM.
Taken in the same sequence, the figures for `CSc1ccccc1CN1N(C2C3CC4CC(C3)CC2C4)C(=O)C1(C)C` (stereo not drawn) [Example 60, 4,4-dimethyl-1-[2-(methylthio)benzyl]-2-(adamantan-2-yl)-1,2-diazetidin-3-one] were 0.15 µM, 0.0082 µM and 1.1 µM.
Regarding `CC1(C)C(=O)N(C2CCCCCCC2)N1c1cccc(Cl)c1Cl` [Example 221, 2-cyclooctyl-1-(2,3-dichlorophenyl)-4,4-dimethyl-1,2-diazetidin-3-one], the IC50 on mouse 11β-HSD1 was 0.29 µM; at human 11β-HSD1, 0.023 µM; at human 11β-HSD2, 3 to 30 µM.
With `CC1(C)C(=O)N(C2C3CC4CC(C3)CC2C4)N1c1cccc2ccccc12` (stereo not drawn) [Example 212, 4,4-dimethyl-1-(naphthalen-1-yl)-2-(adamantan-2-yl)-1,2-diazetidin-3-one], the IC50 at mouse 11β-HSD1 was 0.089 µM; on human 11β-HSD1, 0.032 µM; at human 11β-HSD2, 3 to 30 µM.
Take `CC1(C)C(=O)N(C2C3CC4CC(C3)CC2C4)N1c1ccc(O)cc1` (stereo not drawn) [Example 215, 4,4-dimethyl-1-(4-hydroxyphenyl)-2-(adamantan-2-yl)-1,2-diazetidin-3-one]: the IC50 on mouse 11β-HSD1 worked out at 0.54 µM; at human 11β-HSD1, 0.023 µM; at human 11β-HSD2, 4.5 µM.
On to `CC1(C)C(=O)N(C2C3CC4CC(C3)CC2C4)N1Cc1ccc(F)cc1C(F)(F)F` (stereo not drawn) [Example 48, 1-[4-fluoro-2-(trifluoromethyl)benzyl]-4,4-dimethyl-2-(adamantan-2-yl)-1,2-diazetidin-3-one], for which the results for the IC50 on mouse 11β-HSD1, at human 11β-HSD1 and at human 11β-HSD2 were 0.5 µM, 0.031 µM and greater than 30 µM, respectively.
Regarding `COCOc1ccccc1N1N(C2C3CC4CC(C3)CC2C4)C(=O)C1(C)C` (stereo not drawn) [Example 218, 1-[2-(methoxymethoxy)phenyl]-4,4-dimethyl-2-(adamantan-2-yl)-1,2-diazetidin-3-one], the IC50 is 0.57 µM at mouse 11β-HSD1, 0.81 µM on human 11β-HSD1 and greater than 30 µM at human 11β-HSD2.
Turning to `CC1(C)C(=O)N(C2CCCCCCC2)N1c1cccc2ccccc12` [Example 222, 2-cyclooctyl-4,4-dimethyl-1-(naphthalen-1-yl)-1,2-diazetidin-3-one], the values for the IC50 at mouse 11β-HSD1, on human 11β-HSD1 and at human 11β-HSD2 were 0.087 µM, 0.019 µM and 5.5 µM, respectively.
Turning to `CC1(C)C(=O)N(C2C3CC4CC(C3)CC2C4)N1c1ccccc1[N+](=O)[O-]` (stereo not drawn) [Example 188, 4,4-dimethyl-1-(2-nitrophenyl)-2-(adamantan-2-yl)-1,2-diazetidin-3-one], the IC50 on mouse 11β-HSD1 is 0.76 µM; on human 11β-HSD1, 0.082 µM; on human 11β-HSD2, greater than 30 µM.
Consider `CC1(C)C(=O)N([C@H]2C3CC4CC2C[C@@](C(=O)O)(C4)C3)N1c1cccc2ccccc12` [Example 272, cis-4-[2-(naphthalen-1-yl)-3,3-dimethyl-4-oxo-1,2-diazetidin-1-yl]adamantane-1-carboxylic acid], for which the results for the IC50 at mouse 11β-HSD1, at human 11β-HSD1 and at human 11β-HSD2 were 0.9 µM, 0.05 µM and greater than 30 µM, respectively.
`CC1(C)C(=O)N([C@H]2C3CC4CC2C[C@](Cl)(C4)C3)N1c1cccc(Cl)c1Cl` [Example 251, trans-2-(5-chloroadamantan-2-yl)-1-(2,3-dichlorophenyl)-4,4-dimethyl-1,2-diazetidin-3-one]: the IC50 was 0.61 µM on mouse 11β-HSD1, 0.03 µM on human 11β-HSD1 and 3 to 30 µM on human 11β-HSD2.
On the same counts, the results for `COc1ccccc1N1N([C@H]2C3CC4CC2C[C@](Cl)(C4)C3)C(=O)C1(C)C` [Example 250, trans-2-(5-chloroadamantan-2-yl)-1-(2-methoxyphenyl)-4,4-dimethyl-1,2-diazetidin-3-one] are 0.13 µM, 0.042 µM and greater than 30 µM.
With `CC1(C)C(=O)N(C2C3CC4CC(C3)CC2C4)N1c1cccc(Cl)c1Cl` (stereo not drawn) [Example 206, 1-(2,3-dichlorophenyl)-4,4-dimethyl-2-(adamantan-2-yl)-1,2-diazetidin-3-one], the IC50 at mouse 11β-HSD1 was 0.44 µM; on human 11β-HSD1, 0.0061 µM; on human 11β-HSD2 it was 3 to 30 µM.
Taken in the same sequence, the figures for `CC1(C)C(=O)N([C@H]2C3CC4CC2C[C@](Cl)(C4)C3)N1c1ccccc1O` [Example 253, trans-2-(5-chloroadamantan-2-yl)-1-(2-hydroxyphenyl)-4,4-dimethyl-1,2-diazetidin-3-one] were 0.15 µM, 0.013 µM and 3 to 30 µM.
